The source of these data is publication PMC4410182 (Nature communications, 2015).

For one experiment, the target named is T1, A. borkumensis YdaH (Alcanivorax borkumensis, UniProt Q0VR69).
T1 sequence (Q0VR69 1-492): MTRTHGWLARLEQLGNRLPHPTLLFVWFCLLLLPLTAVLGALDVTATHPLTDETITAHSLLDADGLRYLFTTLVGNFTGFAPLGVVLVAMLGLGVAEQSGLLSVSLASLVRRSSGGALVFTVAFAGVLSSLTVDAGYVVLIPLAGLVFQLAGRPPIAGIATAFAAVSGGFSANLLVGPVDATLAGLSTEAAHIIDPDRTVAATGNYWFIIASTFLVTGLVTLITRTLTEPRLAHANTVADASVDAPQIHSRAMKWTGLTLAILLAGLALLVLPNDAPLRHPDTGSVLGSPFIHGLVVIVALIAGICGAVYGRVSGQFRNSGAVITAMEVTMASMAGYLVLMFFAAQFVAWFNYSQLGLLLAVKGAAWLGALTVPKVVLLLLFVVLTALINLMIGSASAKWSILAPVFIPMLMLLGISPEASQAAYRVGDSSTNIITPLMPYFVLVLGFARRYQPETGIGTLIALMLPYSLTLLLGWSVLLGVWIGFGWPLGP
The experiment can be described thus: isothermal titration calorimetry. The experiment is classed as binding.

Experiment [1] concerns the target A. borkumensis YdaH transporter (Alcanivorax borkumensis) (UniProt Q0VR69). Briefly: SEC. A general note: In gel filtration, larger molecules generally elute earlier.

For the molecule `Nc1ccc(S(=O)(=O)Nc2ncccn2)cc1` [sulfadiazine], on A. borkumensis YdaH, the affinity, expressed as Kd, was 7040 ± 540 nM.

For the molecule `Cc1cc(C)nc(NS(=O)(=O)c2ccc(N)cc2)n1` [sulfamethazine], the Kd (as a rule, the free concentration of one partner at which half of the binding sites on the other are occupied at equilibrium, for simple one-to-one binding) at A. borkumensis YdaH was found to be 410 ± 30 nM.

At A. borkumensis YdaH, `Nc1ccc(S(=O)(=O)Nc2nccs2)cc1` [sulfathiazole] gave a Kd of 600 ± 20 nM. This Kd and that of the molecule before are within 1.5-fold of each other.

Regarding “A. borkumensis YdaH transporter (from UniProt Q0VR69 1-492) (natural protein)”, the stoichiometry N – broadly, a count of units in the complex or per binding partner – in experiment [1] was found to be 2.
